This is an account of results in patent US7341721B2 (The Board of Trustees of the University of Arkansas, priority 2002, dated 2008).

For assay [1], the system named is myeloma cell lines. Particulars: RPMI-8226 and U266; cited from earlier work.
The test system of assay [2] is myeloma cell lines. In words: Apoptosis assay (Annexin V/PI staining, TUNEL), myeloma cell lines. It counts as cell-based, human. The settings on record: for protection from β2m-induced apoptosis / spontaneous apoptosis of myeloma cells: IL-6 20 ng/ml or IGF-I 50 ng/ml, ARK-RS and RPMI-8226; for protection from B2 anti-β2m antibody-induced apoptosis: cytokines added to myeloma cells. As for the experimental part:
(§1) The fraction of apoptotic cells was determined by staining cells with Annexin V-fluorescein isothiocyanate (FITC) (Immunotech) and propidium iodide (PI) (Sigma) (Vermes, I., et al., J. Immunol. Methods, 184:39-51, 1995). […] 5 μl of Annexin V-FITC (BD PharMingen, San Diego, Calif.) were added and incubated for 30 minutes. After washing and re-suspension of the cells in the binding buffer, 5 μl of PI were added, and the cells were ready for analysis. Percentages of apoptotic cells are the sum of PI^−/Annexin V^+ (newly apoptotic) and PI^+/Annexin V^+ (already apoptotic) cell populations (Vermes, I., et al., J. Immunol. Methods, 184:39-51, 1995).
A flow cytometry-based cell death detection kit (APO-BRDU) was purchased from BD PharMingen, and experiments were performed according to the manufacturer's protocol.

For the next assay, the system named is caspase-3 and PARP. In words: Western blot of caspase-3 activation and PARP cleavage in myeloma cells. Particulars: Z-VAD-FMK 100 μM; ARK-RS and RPMI-8226. The class given is cell-based, human.
The test system of the next assay is Jurkat cells. In words: Apoptosis in Jurkat cells. It counts as cell-based. The settings on record: Z-VAD-FMK 100 μM; antibody 100 ng/ml, 18-hour culture. As for the experimental part: as §1
A pan-caspase inhibitor, z-Val-Ala-Asp-fluoromethyl ketone (Z-VAD-FMK) or caspase I inhibitor V, was purchased from Calbiochem-Novabiochem. This peptide was dissolved in dimethylsulfoxide (DMSO, Sigma) and added to cell suspensions at a final concentration of 100 μM (final DMSO concentration of 0.25%).
When the pan-caspase inhibitor Z-VAD-FMK was added to the culture, activation and processing of caspase-3 (data not shown), cleavage of PARP (FIG. 5B), and apoptosis (FIG. 5C) were inhibited.

Method for caspase-3 and PARP: Cells were cultured with or without 40 μg/ml β2m for 48 hours, harvested, washed, and lysed with lysis buffer (50 mM Tris, pH 7.5, 140 mM NaCl, 5 mM EDTA, 5 mM NaN3, 1% Triton-X-100, 1% NP-40, 1× protease inhibitor cocktail). […] The membrane was stripped and reprobed with anti-β-actin antibody (Santa Cruz Biotechnology) to ensure equivalent protein loading. For detection of caspase-3 activation and cleavage of poly(ADP-ribose) polymerase (PARP), the membranes were immunoblotted with anti-caspase-3 antibody (Santa Cruz Biotechnology) or anti-PARP antibody (BD PharMingen). Secondary antibodies conjugated to horseradish peroxidase were used for detection, followed by enhanced chemiluminescence (Bio-Rad Laboratories, Hercules, Calif.) and autoradiography.

On to `N[C@@H](Cc1ccc(N(CCCl)CCCl)cc1)C(=O)O` [melphalan], for which the “sensitivity of myeloma cell lines to melphalan” value with myeloma cell lines [1] is reported as “sensitive”.
As to “IGF-I: recombinant human IGF-I (R&D Systems), growth and survival factor for myeloma cells”, in the assay with myeloma cell lines [2], the “protection from β2m-induced apoptosis” value is “only IL-6 protected myeloma cells”, the “spontaneous apoptosis of myeloma cells” value was “reduced the percentage of cells undergoing spontaneous apoptosis” and the “protection from B2 anti-β2m antibody-induced apoptosis” value was “do not protect myeloma cells”.
The like results for “IL-6: recombinant human IL-6 (R&D Systems), growth and survival factor for myeloma cells” were, in that order, “protected myeloma cells from β2m-induced apoptosis”, “reduced the percentage of cells undergoing spontaneous apoptosis” and “do not protect myeloma cells”.
As to “z-Val-Ala-Asp-fluoromethyl ketone [Z-VAD-FMK]”, in the assay on myeloma cell lines [2] (Z-VAD-FMK 100 μM, RPMI-8226, β2m 40 μg/ml, 48-hour culture), the “effect on β2m-induced apoptosis” value is listed as “inhibited”. The “effect on β2m-induced caspase-3 activation and PARP cleavage” value in the assay on caspase-3 and PARP is given as “inhibited”. Besides, the “effect on anti-Fas antibody 7C11-induced apoptosis” value with Jurkat cells is given as “abrogated apoptosis”.
